Assay results from patent EP1985629A1, “Pro-apoptotic molecules and therapeutic uses thereof” (UNIVERSITA DEGLI STUDI DI GENOVA, priority 2007, dated 2008).
Where a SMILES comes first, the peptide text is derived from it. [ ]: non-standard residue; d: D form. Aib = CC(C)(N)C(=O)O

What was measured:
[1] = Peptides stability in medium with 10% FBS or in 100% FBS (HPLC-MS); format: in vitro ADME; conditions: medium (RPMI 1640) with 10% FBS, 37°C, 32 µM; calculated by linear regression
Description: Compounds were added to the medium solution of serum 10% or 100% FBS at the final concentration of 32 µM. Several extraction mixtures were attempted: MeOH; MeOH with 0,1% trifluoroacetic acid (TFA); (H2O: MeOH) 1:1, 1:4, 4;1. A perchloric acid (PCA) protein precipitation protocol was also tried. […] In both cases ice-cold methanol was added to the peptide solution. The mixture was centrifuged and the resulting supernatant was then added with ice-cold methanol (alone or containing 0,1% TFA) at a 1:1 final ratio and this procedure was repeated twice. Before extraction peptides were incubated in 10% FBS or 100% FBS at 37°C and, at different incubation times (0', 6, 24 and 48 hours), a sample of 50 µl was collected to be analyzed by HPLC-MS.

[2] = Circular dichroism, relative content of secondary structure elements; format: physicochemical; parameters: key to α-Helix / β-Strands / β-Turns / Random: relative content as fraction, from CDSSTR deconvolution; conditions: CDSSTR deconvolution
Description: Circular dichroism (CD) spectra in the far-UV region (190-260 nm) were collected on a Jasco J-715 spectropolarimeter using a 0.1 cm path-length cuvette. Temperature was kept at 25°C by a Peltier device. Peptide concentration was determined from the absorption of the aromatic residues at 280 nm.
Peptides solutions: Bim-BH3Y and Bim-BH3YA2Aib were suspended in water and potassium hydroxide was added up to complete solubilization. 072RB was dissolved in water. Concentration of stock solutions was about 0.1 mg/ml. For circular dichroism measurements, stock solutions were diluted in 10 mM potassium phosphate buffer, pH 7.
The relative content of secondary structure elements was calculated with the deconvolution program CDSSTR [31] (Table 2). […] 072RB has the highest helical content in the set examined here (0.30 α-helix percent).

Bcl-XL = molecular target: T1, Bcl-XL (Homo sapiens, UniProt Q07817, S2L); assay: Fluorescence anisotropy binding and competition binding assay; conditions: competition binding assay: BakF-BH3 2E-8 M, competitor peptide 2E-7 M, Bcl-XL 2E-8 M to 1E-6 M; 45 min, 30°C; read-out: Weighted mean Kd
T1 construct: with the C-terminus truncated; His6; made in house; host or cells: Escherichia coli BL21 (pLys)
Description: Fluorescence Anisotropy was monitored with a Polarion Instrument (Tecan, Austria): excitation wavelength = 485 nm, emission wavelength = 535 nm. […] Anisotropy values were studied at a fixed concentration of fluoresceinated Bak BH3 molecule (2E-8 M), a fixed concentration of peptide inhibitors (2E-7 M) and increasing concentrations of Bel-XL (from 2E-8 M to 1E-6 M). Experiments were performed in 96-wells black non-binding plates (Corning), the experimental volume was always 200 µl / well. Reagents were mixed at room temperature and maintained at a constant temperature (30°C) during the measurements. Anisotropy measurements were performed at different times of incubation to assess the stability of the reactions. […]
For simple binding experiments we evaluated the Kd using a nonlinear regression analysis [NLIN SAS] to fit the Lundblad equation [38]. […]
We calculated the expected Anisotropy value solving a third degree equation obtained extending the simple binding equation to a competitive binding inhibition assay. […]
Point estimates of each equilibrium constant were evaluated using meta-analytical tools weighting each experimental result for its estimated variance. […]
Fluorescence Anisotropy (FA) is a quantitative technique to analyze the interaction of a smaller fluorescent molecule with a larger non fluorescent molecule. […]

[3] = relative content, 10 mM potassium phosphate buffer, pH 7, 25°C

T1 sequence (Q07817 1-212 S2L): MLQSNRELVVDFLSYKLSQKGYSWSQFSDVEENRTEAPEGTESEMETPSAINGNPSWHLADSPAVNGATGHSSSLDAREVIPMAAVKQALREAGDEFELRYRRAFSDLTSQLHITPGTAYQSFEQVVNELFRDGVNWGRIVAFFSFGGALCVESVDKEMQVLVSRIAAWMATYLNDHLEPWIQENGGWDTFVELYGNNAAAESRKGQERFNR

CC[C@H](C)[C@H](NC(=O)[C@H](CCCNC(=N)N)NC(=O)[C@H](CCCNC(=N)N)NC(=O)[C@H](CC(C)C)NC(=O)[C@H](CCC(=O)O)NC(=O)[C@H](CCC(N)=O)NC(=O)C(C)(C)NC(=O)[C@@H](NC(=O)[C@H](Cc1ccc(O)cc1)NC(=O)[C@@H](NC(=O)[C@H](CCC(=O)O)NC(=O)[C@@H]1CCCN1C(=O)[C@H](CCCNC(=N)N)NC(=O)[C@H](CCSC)NC(=O)[C@@H](N)CC(=O)O)[C@@H](C)CC)[C@@H](C)CC)C(=O)NCC(=O)N[C@@H](CC(=O)O)C(=O)N[C@@H](C)C(=O)N[C@@H](Cc1ccccc1)C(=O)N[C@@H](CC(N)=O)C(=O)NC(C)(C)C(=O)N[C@@H](Cc1ccc(O)cc1)C(N)=O [Bim-BH3YA2Aib] (H-DMRPEIYI[Aib]QELRRIGDAFN[Aib]Y-NH2; N-terminus and C-terminus assumed)
half-life [1]: 99,0 h
relative content of helices [2]: 0.15 α-helix percent
Random [2, 3]: 0.56
α-Helix [2, 3]: 0.15
β-Strands [2, 3]: 0.14
β-Turns [2, 3]: 0.15
Kd (Bcl-XL): 12 nM
